Reference: patent US8247211B2, “Glycopeptide antibiotics” (American Cyanamid Company, priority 2001, dated 2012)
In brackets after ≈: the same amount, converted by molar mass.

Tests used:
[1] = test system: Enterococcus faecalis (GC 6189), vancomycin resistant strain; test: Acute lethal infection in mice (ED50); format: in vivo; conditions: female CD-1 mice, intraperitoneal challenge, intravenous dose 30 min. after infection, 7 day survival ratios
Method in brief: (§1)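 ED50 derived from pooled 7-day survival in three separate experiments, five mice per dose level. Single intravenous dose 30 min after intraperitoneal infection of female CD-1 mice with enough bacteria to kill untreated animals in 24-48 h.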

[2] = test system: Staphylococcus aureus-SMITH (GC 4543); test: Acute lethal infection in mice (ED50); format: in vivo; conditions: female CD-1 mice, intraperitoneal challenge, intravenous dose 30 min. after infection, 7 day survival ratios
Method in brief: as §1

[3] = test system: Streptococcus sp.; test: In vitro antibacterial evaluation: minimum inhibitory concentration (MIC), broth dilution method; format: cell-based; conditions: broth dilution, 5×10^5 CFU/mL, 18 hours at 35° C.
Method in brief: (§2)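 NCCLS M7-A2 broth dilution; Muller-Hinton II […]; 5×10^5 CFU/mL; 64-0.06 μg/mL. MIC = lowest concentration with no growth.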

[4] = test system: Staphylococcus sp.; test: as above; format: cell-based; conditions: for MIC Staphylococcus aureus (ATCC 29213): strain ATCC 29213; for MIC Staphylococcus aureus (GC 1131): strain GC 1131; for MIC Staphylococcus aureus (GC 3051): strain GC 3051; for MIC Staphylococcus aureus (GC 3053): strain GC 3053; for MIC Staphylococcus aureus (GC 4541): strain GC 4541; for MIC Staphylococcus aureus (GC 4542): strain GC 4542; for MIC Staphylococcus aureus-SMITH (GC 4543): strain GC 4543; for MIC Staphylococcus aureus (GC 4544): strain GC 4544; for MIC Staphylococcus aureus (GC 4545): strain GC 4545; for MIC Staphylococcus haemolyticus (GC 4546): strain GC 4546; for MIC Coagulase Negative Staphylococcus (GC 4547): strain GC 4547; for MIC Coagulase Negative Staphylococcus (GC 4548): strain GC 4548; for MIC Coagulase Negative Staphylococcus (GC 4549): strain GC 4549; for MIC Coagulase Negative Staphylococcus (GC 4551): strain GC 4551; for MIC Coagulase Negative Staphylococcus (GC 6257): strain GC 6257
Method in brief: as §2

[5] = test system: Escherichia coli; test: as above; format: cell-based; conditions: 5×10^5 CFU/mL, 18 hours at 35° C.
Method in brief: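 Susceptibility determined by NCCLS-recommended broth dilution (M7-A2), Muller-Hinton II […]. Concentration span 64-0.06 μg/mL, inoculum 5×10^5 CFU/mL. Isolates include strains resistant to methicillin, penicillin and/or vancomycin.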

[6] = test system: Enterococcus sp.; test: as above; format: cell-based; conditions: broth dilution, 5×10^5 CFU/mL, 18 hours at 35° C.
Method in brief: as §2

[7] = broth dilution, 18 hours at 35° C.

Compound: CC(c1ccccc1)C1NC(=O)CNC(=O)C(CO)NC(=O)C(C(O)C2CNC(=N)N2C2OC(CO)C(O)C(O)C2O)NC(=O)C(C(O)C2CNC(=N)N2)NC(=O)C(Cc2ccc(OC3OC(CO)C(OC4OC5COC(Cc6ccc(F)cc6)OC5C(O)C4O)C(O)C3O)cc2)NC1=O (stereo not drawn) [Example 121, Cyclo[glycyl-β-methylphenylalanyl-O-[4-O-[4,6-O-(4-fluorophenethylidene)hexopyranosyl]-hexopyranosyl]tyrosyl-3-(2-iminoimidazolidin-4-yl)seryl-3-(3-hexopyranosyl-2-iminoimidazolidin-4-yl)serylseryl]]
- median effective dose (ED50), Enterococcus faecalis (GC 6189) [1]: 0.5 mg/kg
- median effective dose (ED50), Staphylococcus aureus-SMITH (GC 4543) [2]: 0.32 mg/kg
- MIC Streptococcus agalactiae (GC 4564) [3]: 0.25 µg/mL (≈ 0.177 µM)
- MIC Streptococcus pneumoniae (GC 1894) [3]: <0.06 µg/mL
- MIC Streptococcus pneumoniae (GC 4565) [3]: <0.06 µg/mL
- MIC Streptococcus pneumonine (ATCC 6301) [3]: <0.06 µg/mL
- MIC Streptococcus pyogenes (GC 4563) [3]: 0.25 µg/mL (≈ 0.177 µM)
- MIC Staphylococcus aureus (ATCC 29213) [4]: 1 µg/mL (≈ 0.707 µM)
- MIC Staphylococcus aureus (ATCC 29213) [4, 7]: 1 µg/mL (≈ 0.707 µM)
- MIC Staphylococcus aureus (GC 1131) [4]: 2 µg/mL (≈ 1.41 µM)
- MIC Staphylococcus aureus (GC 1131) [4, 7]: 2 µg/mL (≈ 1.41 µM)
- MIC Staphylococcus aureus (GC 3051) [4]: 1 µg/mL (≈ 0.707 µM)
- MIC Staphylococcus aureus (GC 3051) [4, 7]: 1 µg/mL (≈ 0.707 µM)
- MIC Staphylococcus aureus (GC 3053) [4]: 1 µg/mL (≈ 0.707 µM)
- MIC Staphylococcus aureus (GC 3053) [4, 7]: 1 µg/mL (≈ 0.707 µM)
- MIC Staphylococcus aureus (GC 4541) [4]: 1 µg/mL (≈ 0.707 µM)
- MIC Staphylococcus aureus (GC 4541) [4, 7]: 1 µg/mL (≈ 0.707 µM)
- MIC Staphylococcus aureus (GC 4542) [4]: 1 µg/mL (≈ 0.707 µM)
- MIC Staphylococcus aureus (GC 4542) [4, 7]: 1 µg/mL (≈ 0.707 µM)
- MIC Staphylococcus aureus-SMITH (GC 4543) ([4]; 18 hours at 35° C.): 1 µg/mL (≈ 0.707 µM)
- MIC Staphylococcus aureus-SMITH (GC 4543) [4, 7]: 1 µg/mL (≈ 0.707 µM)
- MIC Staphylococcus aureus (GC 4544) [4]: 2 µg/mL (≈ 1.41 µM)
- MIC Staphylococcus aureus (GC 4544) [4, 7]: 2 µg/mL (≈ 1.41 µM)
- MIC Staphylococcus aureus (GC 4545) [4]: 2 µg/mL (≈ 1.41 µM)
- MIC Staphylococcus aureus (GC 4545) [4, 7]: 2 µg/mL (≈ 1.41 µM)
- MIC Staphylococcus haemolyticus (GC 4546) [4]: 1 µg/mL (≈ 0.707 µM)
- MIC Staphylococcus haemolyticus (GC 4546) [4, 7]: 1 µg/mL (≈ 0.707 µM)
- MIC Coagulase Negative Staphylococcus (GC 4547) [4]: 1 µg/mL (≈ 0.707 µM)
- MIC Coagulase Negative Staphylococcus (GC 4547) [4, 7]: 1 µg/mL (≈ 0.707 µM)
- MIC Coagulase Negative Staphylococcus (GC 4548) [4]: 0.5 µg/mL (≈ 0.353 µM)
- MIC Coagulase Negative Staphylococcus (GC 4548) [4, 7]: 0.5 µg/mL (≈ 0.353 µM)
- MIC Coagulase Negative Staphylococcus (GC 4549) [4]: 0.5 µg/mL (≈ 0.353 µM)
- MIC Coagulase Negative Staphylococcus (GC 4549) [4, 7]: 0.5 µg/mL (≈ 0.353 µM)
- MIC Coagulase Negative Staphylococcus (GC 4551) [4]: 2 µg/mL (≈ 1.41 µM)
- MIC Coagulase Negative Staphylococcus (GC 4551) [4, 7]: 2 µg/mL (≈ 1.41 µM)
- MIC Coagulase Negative Staphylococcus (GC 6257) [4]: 1 µg/mL (≈ 0.707 µM)
- MIC Coagulase Negative Staphylococcus (GC 6257) [4, 7]: 1 µg/mL (≈ 0.707 µM)
- MIC Escherichia coli (ATCC 25922) [5]: 32 µg/mL (≈ 22.6 µM)
- MIC Escherichia coli (GC 4559) [5]: 32 µg/mL (≈ 22.6 µM)
- MIC Escherichia coli (GC 4560) [5]: 1 µg/mL (≈ 0.707 µM)
- MIC Enterococccus avium (GC 4558) [6]: 4 µg/mL (≈ 2.83 µM)
- MIC Enterococccus faecalis (ATCC 29212) [6]: 2 µg/mL (≈ 1.41 µM)
- MIC Enterococccus faecalis (GC 2691) [6]: 4 µg/mL (≈ 2.83 µM)
- MIC Enterococccus faecalis (GC 3059) [6]: 2 µg/mL (≈ 1.41 µM)
- MIC Enterococccus faecalis (GC 4552) [6]: 2 µg/mL (≈ 1.41 µM)
- MIC Enterococccus faecalis (GC 4553) [6]: 4 µg/mL (≈ 2.83 µM)
- MIC Enterococccus faecalis (GC 4554) [6]: 2 µg/mL (≈ 1.41 µM)
- MIC Enterococccus faecalis (GC 6189) [6]: 2 µg/mL (≈ 1.41 µM)
- MIC Enterococccus faecium (GC 2243) [6]: 2 µg/mL (≈ 1.41 µM)
- MIC Enterococccus faecium (GC 4556) [6]: 2 µg/mL (≈ 1.41 µM)
- MIC Enterococccus faecium (GC 4557) [6]: 2 µg/mL (≈ 1.41 µM)
- MIC Enterococcus faecalis (GC 2242) [6]: 2 µg/mL (≈ 1.41 µM)

Compound: CC(c1ccccc1)C1NC(=O)CNC(=O)C(CO)NC(=O)C(C(O)C2CNC(=N)N2C2OC(CO)C(O)C(O)C2O)NC(=O)C(C(O)C2CNC(=N)N2)NC(=O)C(Cc2ccc(OC3OC(CO)C(OC4OC5COC(C6CC=CCC6)OC5C(O)C4O)C(O)C3O)cc2)NC1=O (stereo not drawn) [Example 115, Cyclo[glycyl-β-methylphenylalanyl-O-[4-O-[4,6-O-(cyclohex-3-en-1-ylmethylene)hexopyranosyl]hexopyranosyl]tyrosyl-3-(2-iminoimidazolidin-4-yl)seryl-3-(3-hexopyranosyl-2-iminoimidazolidin-4-yl)serylseryl]]
- median effective dose (ED50), Enterococcus faecalis (GC 6189) [1]: 0.36 mg/kg
- median effective dose (ED50), Staphylococcus aureus-SMITH (GC 4543) [2]: 0.23 mg/kg
- MIC Streptococcus agalactiae (GC 4564) [3]: 0.25 µg/mL (≈ 0.18 µM)
- MIC Streptococcus pneumoniae (GC 1894) [3]: <0.06 µg/mL
- MIC Streptococcus pneumoniae (GC 4565) [3]: 0.12 µg/mL (≈ 0.0865 µM)
- MIC Streptococcus pneumonine (ATCC 6301) [3]: <0.06 µg/mL
- MIC Streptococcus pyogenes (GC 4563) [3]: 0.25 µg/mL (≈ 0.18 µM)
- MIC Staphylococcus aureus (ATCC 29213) [4]: 1 µg/mL (≈ 0.721 µM)
- MIC Staphylococcus aureus (ATCC 29213) [4, 7]: 1 µg/mL (≈ 0.721 µM)
- MIC Staphylococcus aureus (GC 1131) [4]: 1 µg/mL (≈ 0.721 µM)
- MIC Staphylococcus aureus (GC 1131) [4, 7]: 1 µg/mL (≈ 0.721 µM)
- MIC Staphylococcus aureus (GC 3051) [4]: 1 µg/mL (≈ 0.721 µM)
- MIC Staphylococcus aureus (GC 3051) [4, 7]: 1 µg/mL (≈ 0.721 µM)
- MIC Staphylococcus aureus (GC 3053) [4]: 1 µg/mL (≈ 0.721 µM)
- MIC Staphylococcus aureus (GC 3053) [4, 7]: 1 µg/mL (≈ 0.721 µM)
- MIC Staphylococcus aureus (GC 4541) [4]: 1 µg/mL (≈ 0.721 µM)
- MIC Staphylococcus aureus (GC 4541) [4, 7]: 1 µg/mL (≈ 0.721 µM)
- MIC Staphylococcus aureus (GC 4542) [4]: 0.5 µg/mL (≈ 0.36 µM)
- MIC Staphylococcus aureus (GC 4542) [4, 7]: 0.5 µg/mL (≈ 0.36 µM)
- MIC Staphylococcus aureus-SMITH (GC 4543) ([4]; 18 hours at 35° C.): 1 µg/mL (≈ 0.721 µM)
- MIC Staphylococcus aureus-SMITH (GC 4543) [4, 7]: 1 µg/mL (≈ 0.721 µM)
- MIC Staphylococcus aureus (GC 4544) [4]: 1 µg/mL (≈ 0.721 µM)
- MIC Staphylococcus aureus (GC 4544) [4, 7]: 1 µg/mL (≈ 0.721 µM)
- MIC Staphylococcus aureus (GC 4545) [4]: 0.5 µg/mL (≈ 0.36 µM)
- MIC Staphylococcus aureus (GC 4545) [4, 7]: 0.5 µg/mL (≈ 0.36 µM)
- MIC Staphylococcus haemolyticus (GC 4546) [4]: 0.5 µg/mL (≈ 0.36 µM)
- MIC Staphylococcus haemolyticus (GC 4546) [4, 7]: 0.5 µg/mL (≈ 0.36 µM)
- MIC Coagulase Negative Staphylococcus (GC 4547) [4]: 1 µg/mL (≈ 0.721 µM)
- MIC Coagulase Negative Staphylococcus (GC 4547) [4, 7]: 1 µg/mL (≈ 0.721 µM)
- MIC Coagulase Negative Staphylococcus (GC 4548) [4]: 0.5 µg/mL (≈ 0.36 µM)
- MIC Coagulase Negative Staphylococcus (GC 4548) [4, 7]: 0.5 µg/mL (≈ 0.36 µM)
- MIC Coagulase Negative Staphylococcus (GC 4549) [4]: 1 µg/mL (≈ 0.721 µM)
- MIC Coagulase Negative Staphylococcus (GC 4549) [4, 7]: 1 µg/mL (≈ 0.721 µM)
- MIC Coagulase Negative Staphylococcus (GC 4551) [4]: 1 µg/mL (≈ 0.721 µM)
- MIC Coagulase Negative Staphylococcus (GC 4551) [4, 7]: 1 µg/mL (≈ 0.721 µM)
- MIC Coagulase Negative Staphylococcus (GC 6257) [4]: 0.5 µg/mL (≈ 0.36 µM)
- MIC Coagulase Negative Staphylococcus (GC 6257) [4, 7]: 0.5 µg/mL (≈ 0.36 µM)
- MIC Escherichia coli (ATCC 25922) [5]: 32 µg/mL (≈ 23.1 µM)
- MIC Escherichia coli (GC 4559) [5]: 64 µg/mL (≈ 46.1 µM)
- MIC Escherichia coli (GC 4560) [5]: 1 µg/mL (≈ 0.721 µM)
- MIC Enterococccus avium (GC 4558) [6]: 2 µg/mL (≈ 1.44 µM)
- MIC Enterococccus faecalis (ATCC 29212) [6]: 2 µg/mL (≈ 1.44 µM)
- MIC Enterococccus faecalis (GC 2691) [6]: 2 µg/mL (≈ 1.44 µM)
- MIC Enterococccus faecalis (GC 3059) [6]: 2 µg/mL (≈ 1.44 µM)
- MIC Enterococccus faecalis (GC 4552) [6]: 2 µg/mL (≈ 1.44 µM)
- MIC Enterococccus faecalis (GC 4553) [6]: 4 µg/mL (≈ 2.88 µM)
- MIC Enterococccus faecalis (GC 4554) [6]: 2 µg/mL (≈ 1.44 µM)
- MIC Enterococccus faecalis (GC 6189) [6]: 2 µg/mL (≈ 1.44 µM)
- MIC Enterococccus faecium (GC 2243) [6]: 2 µg/mL (≈ 1.44 µM)
- MIC Enterococccus faecium (GC 4556) [6]: 2 µg/mL (≈ 1.44 µM)
- MIC Enterococccus faecium (GC 4557) [6]: 2 µg/mL (≈ 1.44 µM)
- MIC Enterococcus faecalis (GC 2242) [6]: 2 µg/mL (≈ 1.44 µM)
